Key:
Test in all cases: Competitive isoTOP-ABPP, cell lysates
Assay type in all cases: binding
AIP C122 (O00170) = molecular target: T1, AIP C122 (O00170) (Homo sapiens, UniProt O00170); conditions: for R value (DMSO/fragment) / isoTOP-ABPP ratio, O00170_C122: 500 μM
T1 sequence (O00170 1-330): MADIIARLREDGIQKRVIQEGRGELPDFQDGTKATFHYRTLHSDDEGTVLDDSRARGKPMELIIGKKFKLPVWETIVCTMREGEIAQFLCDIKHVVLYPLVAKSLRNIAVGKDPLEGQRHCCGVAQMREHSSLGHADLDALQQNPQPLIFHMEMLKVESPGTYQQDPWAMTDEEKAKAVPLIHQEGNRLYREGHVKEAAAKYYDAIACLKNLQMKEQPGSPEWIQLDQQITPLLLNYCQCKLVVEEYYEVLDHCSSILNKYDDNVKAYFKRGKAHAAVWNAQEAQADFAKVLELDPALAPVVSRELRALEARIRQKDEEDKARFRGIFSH

XPO1 C34 (O14980) = XPO1 C34 (O14980) (Homo sapiens, UniProt O14980); conditions: for R value (DMSO/fragment) / isoTOP-ABPP ratio, O14980_C34: 500 μM
Chain of XPO1 C34 (O14980) (O14980 whole entry, the tested form may be a part): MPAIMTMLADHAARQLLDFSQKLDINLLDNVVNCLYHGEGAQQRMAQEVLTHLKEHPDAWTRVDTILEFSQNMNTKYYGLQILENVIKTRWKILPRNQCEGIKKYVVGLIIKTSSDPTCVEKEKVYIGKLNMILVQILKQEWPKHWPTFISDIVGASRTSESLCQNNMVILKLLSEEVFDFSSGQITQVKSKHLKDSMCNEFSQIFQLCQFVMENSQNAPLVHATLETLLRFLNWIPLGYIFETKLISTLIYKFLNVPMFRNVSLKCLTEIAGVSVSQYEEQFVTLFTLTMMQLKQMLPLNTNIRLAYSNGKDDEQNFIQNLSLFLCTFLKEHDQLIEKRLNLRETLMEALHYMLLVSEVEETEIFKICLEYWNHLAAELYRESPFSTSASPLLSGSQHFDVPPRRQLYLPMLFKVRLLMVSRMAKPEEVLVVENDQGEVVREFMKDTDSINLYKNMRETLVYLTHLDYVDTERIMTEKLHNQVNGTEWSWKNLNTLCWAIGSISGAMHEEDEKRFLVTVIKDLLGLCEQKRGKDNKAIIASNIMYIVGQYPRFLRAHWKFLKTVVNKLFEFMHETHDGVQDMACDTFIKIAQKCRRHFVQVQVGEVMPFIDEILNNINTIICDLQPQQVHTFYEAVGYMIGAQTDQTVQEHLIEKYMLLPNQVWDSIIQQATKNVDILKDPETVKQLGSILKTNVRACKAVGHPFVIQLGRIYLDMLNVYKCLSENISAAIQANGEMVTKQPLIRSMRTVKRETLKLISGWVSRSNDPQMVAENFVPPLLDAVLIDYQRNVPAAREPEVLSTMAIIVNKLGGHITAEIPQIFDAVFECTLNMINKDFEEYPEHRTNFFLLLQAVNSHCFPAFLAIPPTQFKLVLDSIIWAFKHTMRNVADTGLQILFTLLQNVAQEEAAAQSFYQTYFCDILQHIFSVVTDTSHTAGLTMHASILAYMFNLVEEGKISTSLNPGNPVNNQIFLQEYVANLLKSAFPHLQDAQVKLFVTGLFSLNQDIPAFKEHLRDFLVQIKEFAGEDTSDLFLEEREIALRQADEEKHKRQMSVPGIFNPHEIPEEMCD

DCUN1D1 C115 (Q96GG9) = DCUN1D1 C115 (Q96GG9) (Homo sapiens, UniProt Q96GG9)
Chain of DCUN1D1 C115 (Q96GG9) (Q96GG9 whole entry): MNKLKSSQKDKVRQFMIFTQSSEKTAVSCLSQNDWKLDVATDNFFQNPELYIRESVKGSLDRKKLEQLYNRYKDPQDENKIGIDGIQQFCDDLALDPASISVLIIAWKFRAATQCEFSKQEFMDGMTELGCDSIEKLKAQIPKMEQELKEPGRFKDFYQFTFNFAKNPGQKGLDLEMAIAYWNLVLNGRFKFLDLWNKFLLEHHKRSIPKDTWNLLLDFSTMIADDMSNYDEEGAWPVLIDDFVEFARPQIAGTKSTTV

UCHL3 C95 (P15374) = molecular target: T2, UCHL3 C95 (P15374) (Homo sapiens, UniProt P15374)
T2 sequence (P15374 1-230): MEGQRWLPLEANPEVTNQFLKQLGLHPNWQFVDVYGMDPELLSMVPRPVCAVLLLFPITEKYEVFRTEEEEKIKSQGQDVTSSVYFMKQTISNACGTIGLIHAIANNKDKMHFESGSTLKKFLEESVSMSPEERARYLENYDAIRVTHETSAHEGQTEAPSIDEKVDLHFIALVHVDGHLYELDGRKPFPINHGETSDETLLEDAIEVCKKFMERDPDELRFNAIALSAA

ADA C75 (P00813) = molecular target: T3, ADA C75 (P00813) (Homo sapiens, UniProt P00813); conditions: for isoTOP-ABPP ratio (reactivity profile), P00813_C75: 500 μm in-vitro ramos
T3 sequence (P00813 1-363): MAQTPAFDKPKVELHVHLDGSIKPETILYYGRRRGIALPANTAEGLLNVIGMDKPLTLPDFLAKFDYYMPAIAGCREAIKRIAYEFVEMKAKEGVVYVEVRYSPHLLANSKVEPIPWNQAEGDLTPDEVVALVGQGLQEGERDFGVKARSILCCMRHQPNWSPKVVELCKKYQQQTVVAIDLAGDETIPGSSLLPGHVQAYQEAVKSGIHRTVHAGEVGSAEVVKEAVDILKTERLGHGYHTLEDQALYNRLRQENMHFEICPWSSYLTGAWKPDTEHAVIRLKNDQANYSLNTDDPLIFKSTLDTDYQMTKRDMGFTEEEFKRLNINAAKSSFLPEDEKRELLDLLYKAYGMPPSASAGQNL

PRMT1 C109 (Q99873) = PRMT1 C109 (Q99873) (Homo sapiens, UniProt Q99873); conditions: for R value (DMSO/fragment) / isoTOP-ABPP ratio, Q99873_C109: 500 μM
Chain of PRMT1 C109 (Q99873) (Q99873 whole entry, the tested form may be a part): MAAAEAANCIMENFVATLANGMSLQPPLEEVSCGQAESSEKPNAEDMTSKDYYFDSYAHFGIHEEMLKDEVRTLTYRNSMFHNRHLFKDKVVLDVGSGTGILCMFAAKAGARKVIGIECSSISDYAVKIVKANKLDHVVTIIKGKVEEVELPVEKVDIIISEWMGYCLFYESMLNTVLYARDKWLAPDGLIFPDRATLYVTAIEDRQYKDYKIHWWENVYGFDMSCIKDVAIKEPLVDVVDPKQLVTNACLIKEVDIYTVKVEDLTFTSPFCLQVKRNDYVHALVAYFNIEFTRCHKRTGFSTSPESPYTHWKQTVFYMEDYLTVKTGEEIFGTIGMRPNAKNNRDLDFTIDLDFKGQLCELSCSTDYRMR

PDE12 C108 (Q6L8Q7) = molecular target: T4, PDE12 C108 (Q6L8Q7) (Homo sapiens, UniProt Q6L8Q7)
T4 sequence (Q6L8Q7 43-609): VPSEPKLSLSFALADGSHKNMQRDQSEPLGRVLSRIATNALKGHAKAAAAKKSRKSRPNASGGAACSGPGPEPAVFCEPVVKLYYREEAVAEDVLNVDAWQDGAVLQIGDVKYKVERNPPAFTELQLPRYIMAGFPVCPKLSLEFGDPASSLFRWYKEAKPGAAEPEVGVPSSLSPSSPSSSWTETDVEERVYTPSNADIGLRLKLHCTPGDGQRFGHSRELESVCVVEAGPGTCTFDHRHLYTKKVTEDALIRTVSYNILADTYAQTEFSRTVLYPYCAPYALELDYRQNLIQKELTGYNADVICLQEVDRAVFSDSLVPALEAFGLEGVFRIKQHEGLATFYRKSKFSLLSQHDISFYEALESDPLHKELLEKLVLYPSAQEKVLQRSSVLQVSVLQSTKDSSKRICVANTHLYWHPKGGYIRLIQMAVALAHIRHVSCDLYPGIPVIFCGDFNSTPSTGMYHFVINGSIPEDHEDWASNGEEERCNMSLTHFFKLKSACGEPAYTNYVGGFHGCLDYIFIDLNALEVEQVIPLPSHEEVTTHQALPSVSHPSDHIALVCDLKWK

COc1ccc2c(c1)CCCN2C(=O)CCl [compound 2]
R value (DMSO/fragment) (AIP C122 (O00170); in vitro, MDA-MB-231): 12.5
R value (DMSO/fragment) (AIP C122 (O00170); invitro, ramos): 6.7
R value (DMSO/fragment) (XPO1 C34 (O14980); in vitro, MDA-MB-231): 2.8
R value (DMSO/fragment) (XPO1 C34 (O14980); invitro, ramos): 4.6
R value (DMSO/fragment) (DCUN1D1 C115 (Q96GG9); 500 μM, invitro, ramos): 20.0
R value (DMSO/fragment) (UCHL3 C95 (P15374); 500 μM, invitro, ramos): 1.8
R value (DMSO/fragment) (ADA C75 (P00813); 500 μM, invitro, ramos): 7.3
R value (DMSO/fragment) (PRMT1 C109 (Q99873); in vitro, MDA-MB-231): 3.1
R value (DMSO/fragment) (PRMT1 C109 (Q99873); invitro, ramos): 12.6
blockade of IA-alkyne labeling of C109 of PRMT1 (PRMT1 C109 (Q99873); competitive isoTOP-ABPP): blocking IA-alkyne labeling
R value (DMSO/fragment) (PDE12 C108 (Q6L8Q7); 500 μM, invitro, ramos): 5.1

O=C(CCl)N1CCN(S(=O)(=O)c2ccccc2F)CC1 [compound 10]
isoTOP-ABPP ratio, O00170_C122 (AIP C122 (O00170); invitro, ramos): 1.7
isoTOP-ABPP ratio, O14980_C34 (XPO1 C34 (O14980); invitro, 231): 1.2
isoTOP-ABPP ratio, O14980_C34 (XPO1 C34 (O14980); invitro, ramos): 0.7
isoTOP-ABPP ratio, Q96GG9_C115 (DCUN1D1 C115 (Q96GG9); 500 μM, invitro, 231): 1.3
isoTOP-ABPP ratio, Q96GG9_C115 (DCUN1D1 C115 (Q96GG9); 500 μM, invitro, ramos): 1.0
isoTOP-ABPP ratio, P15374_C95 (UCHL3 C95 (P15374); 500 μM, invitro, 231): 2.0
isoTOP-ABPP ratio, P00813_C75 (ADA C75 (P00813); 500 μM, invitro, ramos): 1.0
isoTOP-ABPP ratio, Q99873_C109 (PRMT1 C109 (Q99873); invitro, 231): 2.3
isoTOP-ABPP ratio, Q99873_C109 (PRMT1 C109 (Q99873); invitro, ramos): 1.3

O=C(CCl)NCCc1c[nH]c2ccccc12 [compound 13]
isoTOP-ABPP ratio, O00170_C122 (AIP C122 (O00170); invitro, ramos): 0.9
isoTOP-ABPP ratio, O14980_C34 (XPO1 C34 (O14980); invitro, 231): 0.9
isoTOP-ABPP ratio, O14980_C34 (XPO1 C34 (O14980); invitro, ramos): 0.7
isoTOP-ABPP ratio, P15374_C95 (UCHL3 C95 (P15374); 500 μM, invitro, ramos): 0.8
isoTOP-ABPP ratio, P00813_C75 (ADA C75 (P00813); 500 μM, invitro, ramos): 0.9
isoTOP-ABPP ratio, Q99873_C109 (PRMT1 C109 (Q99873); invitro, 231): 1.0
isoTOP-ABPP ratio, Q99873_C109 (PRMT1 C109 (Q99873); invitro, ramos): 0.9
isoTOP-ABPP ratio, Q6L8Q7_C108 (PDE12 C108 (Q6L8Q7); 500 μM, invitro, ramos): 1.0

O=C(CCl)NC12CC3CC(CC(C3)C1)C2 [compound 21]
isoTOP-ABPP ratio (reactivity profile), O00170_C122 (AIP C122 (O00170); 500 μm in-vitro ramos_231): 1.4
isoTOP-ABPP ratio (reactivity profile), O14980_C34 (XPO1 C34 (O14980); 500 μm in-vitro ramos): 1.2
isoTOP-ABPP ratio (reactivity profile), O14980_C34 (XPO1 C34 (O14980); 500 μm in-vitro ramos_231): 0.9
isoTOP-ABPP ratio (reactivity profile), Q96GG9_C115 (DCUN1D1 C115 (Q96GG9); 500 μm in-vitro ramos): 1.0
isoTOP-ABPP ratio (reactivity profile), Q96GG9_C115 (DCUN1D1 C115 (Q96GG9); 500 μm in-vitro ramos_231): 1.0
isoTOP-ABPP ratio (reactivity profile), P15374_C95 (UCHL3 C95 (P15374); 500 μm in-vitro ramos_231): 1.1
isoTOP-ABPP ratio (reactivity profile), P00813_C75 (ADA C75 (P00813)): 1.3
isoTOP-ABPP ratio (reactivity profile), Q99873_C109 (PRMT1 C109 (Q99873); 500 μm in-vitro ramos): 1.5
isoTOP-ABPP ratio (reactivity profile), Q99873_C109 (PRMT1 C109 (Q99873); 500 μm in-vitro ramos_231): 1.1

O=C(CCl)N1CCOCC1 [compound 22]
isoTOP-ABPP ratio (reactivity profile), O00170_C122 (AIP C122 (O00170); 500 μm in-vitro ramos): 1.1
isoTOP-ABPP ratio (reactivity profile), O00170_C122 (AIP C122 (O00170); 500 μm in-vitro ramos_231): 1.3
isoTOP-ABPP ratio (reactivity profile), O14980_C34 (XPO1 C34 (O14980); 500 μm in-vitro ramos_231): 1.1
isoTOP-ABPP ratio (reactivity profile), Q96GG9_C115 (DCUN1D1 C115 (Q96GG9); 500 μm in-vitro ramos): 0.8
isoTOP-ABPP ratio (reactivity profile), Q96GG9_C115 (DCUN1D1 C115 (Q96GG9); 500 μm in-vitro ramos_231): 1.0
isoTOP-ABPP ratio (reactivity profile), P15374_C95 (UCHL3 C95 (P15374); 500 μm in-vitro ramos): 0.7
isoTOP-ABPP ratio (reactivity profile), P00813_C75 (ADA C75 (P00813)): 1.3
isoTOP-ABPP ratio (reactivity profile), Q99873_C109 (PRMT1 C109 (Q99873); 500 μm in-vitro ramos): 1.0
isoTOP-ABPP ratio (reactivity profile), Q99873_C109 (PRMT1 C109 (Q99873); 500 μm in-vitro ramos_231): 1.0

COc1ccccc1OCCNC(=O)CCl [compound 28]
isoTOP-ABPP ratio (reactivity profile), O00170_C122 (AIP C122 (O00170); 500 μm in-vitro ramos): 1.2
isoTOP-ABPP ratio (reactivity profile), O00170_C122 (AIP C122 (O00170); 500 μm in-vitro ramos_231): 0.9
isoTOP-ABPP ratio (reactivity profile), O14980_C34 (XPO1 C34 (O14980); 500 μm in-vitro ramos): 0.9
isoTOP-ABPP ratio (reactivity profile), O14980_C34 (XPO1 C34 (O14980); 500 μm in-vitro ramos_231): 0.8
isoTOP-ABPP ratio (reactivity profile), P15374_C95 (UCHL3 C95 (P15374); 500 μm in-vitro ramos): 0.9
isoTOP-ABPP ratio (reactivity profile), P15374_C95 (UCHL3 C95 (P15374); 500 μm in-vitro ramos_231): 1.1
isoTOP-ABPP ratio (reactivity profile), P00813_C75 (ADA C75 (P00813)): 0.9
isoTOP-ABPP ratio (reactivity profile), Q99873_C109 (PRMT1 C109 (Q99873); 500 μm in-vitro ramos): 1.1
isoTOP-ABPP ratio (reactivity profile), Q99873_C109 (PRMT1 C109 (Q99873); 500 μm in-vitro ramos_231): 0.8
isoTOP-ABPP ratio (reactivity profile), Q6L8Q7_C108 (PDE12 C108 (Q6L8Q7); 500 μm in-vitro ramos): 1.2
isoTOP-ABPP ratio (reactivity profile), Q6L8Q7_C108 (PDE12 C108 (Q6L8Q7); 500 μm in-vitro ramos_231): 1.0

From US10670605B2, “Cysteine reactive probes and uses thereof” (The Scripps Research Institute, priority 2015, dated 2020)
